Blank lines part the entries; values can stand above or below the compound they belong to.
Columns and labels:
PPARα [1] = target: T1, PPARα (Homo sapiens, UniProt Q07869); assay: PPARα transactivation reporter gene assay in SMMC-7721 cells; type: cell-based
T1 sequence (Q07869 1-468): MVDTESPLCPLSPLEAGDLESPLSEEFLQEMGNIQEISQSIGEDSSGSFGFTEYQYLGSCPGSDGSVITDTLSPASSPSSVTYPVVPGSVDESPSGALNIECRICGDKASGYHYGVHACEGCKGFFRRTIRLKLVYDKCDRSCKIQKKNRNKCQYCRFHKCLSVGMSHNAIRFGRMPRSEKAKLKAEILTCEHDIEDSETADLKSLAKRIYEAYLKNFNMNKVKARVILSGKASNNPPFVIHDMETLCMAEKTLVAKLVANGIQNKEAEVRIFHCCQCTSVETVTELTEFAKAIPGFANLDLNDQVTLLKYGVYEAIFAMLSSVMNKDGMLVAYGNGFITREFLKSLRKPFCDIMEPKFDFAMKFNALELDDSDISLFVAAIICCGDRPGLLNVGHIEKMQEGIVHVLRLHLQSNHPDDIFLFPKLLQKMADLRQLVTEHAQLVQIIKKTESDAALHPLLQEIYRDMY
T1 sequence (P19793 1-462 partner): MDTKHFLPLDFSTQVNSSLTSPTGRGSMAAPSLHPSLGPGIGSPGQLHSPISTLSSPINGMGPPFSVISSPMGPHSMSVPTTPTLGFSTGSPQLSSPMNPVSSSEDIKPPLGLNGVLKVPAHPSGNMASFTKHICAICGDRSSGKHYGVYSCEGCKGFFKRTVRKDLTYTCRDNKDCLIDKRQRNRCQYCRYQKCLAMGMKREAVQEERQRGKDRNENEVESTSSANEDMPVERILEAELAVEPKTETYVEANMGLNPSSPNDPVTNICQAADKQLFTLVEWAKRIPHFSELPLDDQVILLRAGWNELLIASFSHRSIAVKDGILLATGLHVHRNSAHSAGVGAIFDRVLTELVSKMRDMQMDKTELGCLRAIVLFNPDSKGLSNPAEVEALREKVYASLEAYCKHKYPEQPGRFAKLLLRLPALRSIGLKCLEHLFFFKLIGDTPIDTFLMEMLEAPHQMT

SMMC-7721 cells = assay: Gene expression by RT-PCR in SMMC-7721 cells; type: cell-based, human; settings: 48 h, 10 μM rosiglitazone, 10 μM chiglitazar; for Expression of LDL receptor (LDLR): 50 μM WY14643, 5 μM 2-Bro
Source text: (§1) cDNAs for human retinoid X receptor (hRXR), PPARα, PPARγ, and PPARδ were obtained by reverse transcriptase polymerase chain reaction (RT-PCR) from human liver or adipose tissues. Amplified cDNAs were cloned into pcDNA3.1 expression vector (Invitrogen, Carlsbad, CA, USA). The integrity and fidelity of all constructs made were verified by DNA sequencing. Luciferase reporter plasmids, ACOX promoter for PPARγ and pHD(X3)-luc for PPARα, were kind gifts of Drs. TM McIntyre (University of Utah, USA) and RA Rachubinski (University of Alberta, Canada), respectively. PPRE-luc for PPARδ was constructed based on the previous report by insertion of the annealed oligonucleotides having four copies of the CYP4A6 PPRE (4 × […]) into the upstream of the luciferase coding sequence in pGL3-promoter vector (Promega, Madison, WI, USA). pCMVβGal was purchased from Clontech (Palo Alto, CA, USA). The mouse 3T3-L1 preadipocyte cell line, skeletal muscle C2C12 cell line, and macrophage RAW267.4 cell line and the human osteosarcoma U2OS cell line were obtained from the American Type Culture Collection (ATCC, Rockville, MD, USA). The human hepatoma SMMC-7721 cell line was obtained from the Cell Culture Center of Chinese Academy of Medical Sciences (Beijing, China). Cell lines were cultured in medium of DMEM (3T3-L1, C2C12, and SMMC-7721), RPMI 1640 (RAW267.4), or McCoy's 5A (U2OS), containing 10% fetal bovine serum (FBS), 50 μg/mL streptomycin, and 50 units/mL penicillin at 37°C in a humidified incubator with 5% CO2.
(§2) Total RNA was extracted from cells or tissues with an RNeasy minikit (Qiagen, Valencia, CA, USA). The first-strand cDNA was synthesized using the oligo(dT) primers, followed by using SuperScript II reverse transcriptase (Invitrogen) according to the manufacturer's instructions. The PCR amplifications were performed in 10 μL of reaction mixture volume containing 0.8 μL of cDNA, 10 mM Tris-HCl (pH 8.3), 50 mM KCl, 1.5 mM MgCl2, 0.1% Triton X-100, 0.2 mM deoxynucleotide triphosphates, 0.4 μM primers, and 0.25 U of Taq polymerase (TaKaRa Biotechnology Co., Ltd, China). Taq DNA polymerase was added to each tube after a treatment of 2 min at 94°C. This was followed by 22–30 cycles of denaturation (23 s at 94°C), annealing (20 s at 55°C), extension (30 s at 72°C), and a final extension step of 2 min. PCR products were analyzed by electrophoresis on a 1.5% agarose gel stained with ethidium bromide.
(§3) Figure 1 In vitro regulation of gene expression by chiglitazar. (a) Endogenous expression of individual PPAR subtypes in cell lines. […]. The expression change of referred genes induced by different compounds was normalized against internal control (36B4 or GAPDH) and then compared with vehicle control treatment. The data shown are averaged from 3 independent experiments.

PPARγ [2] = target: T2, PPARγ (Homo sapiens, UniProt P37231); assay: PPARγ transactivation reporter gene assay in U2OS cells; type: cell-based; settings: 24 h treatment, luciferase reporter, hRXR cotransfected, ia: inactive at 10 μM
T2 construct: expressed in transfected cells; host or cells: SMMC-7721 or U2OS
T2 sequence (P37231 1-505): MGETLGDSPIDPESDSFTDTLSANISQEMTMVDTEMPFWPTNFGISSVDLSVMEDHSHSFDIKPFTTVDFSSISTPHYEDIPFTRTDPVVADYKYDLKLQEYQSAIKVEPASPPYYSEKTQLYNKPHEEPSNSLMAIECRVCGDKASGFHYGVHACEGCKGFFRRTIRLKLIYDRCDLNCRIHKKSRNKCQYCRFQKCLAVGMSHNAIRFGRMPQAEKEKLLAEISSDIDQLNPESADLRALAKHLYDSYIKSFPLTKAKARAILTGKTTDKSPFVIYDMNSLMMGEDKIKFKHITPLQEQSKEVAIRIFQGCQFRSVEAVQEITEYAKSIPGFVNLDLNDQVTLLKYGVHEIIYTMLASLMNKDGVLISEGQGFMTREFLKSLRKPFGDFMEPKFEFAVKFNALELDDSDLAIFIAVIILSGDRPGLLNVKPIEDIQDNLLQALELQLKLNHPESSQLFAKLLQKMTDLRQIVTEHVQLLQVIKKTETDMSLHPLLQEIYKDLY
T2 sequence (P19793 1-462 partner): T1 sequence (P19793 1-462 partner)

PPARδ [3] = target: T3, PPARδ (Homo sapiens, UniProt Q03181); assay: PPARδ transactivation reporter gene assay in SMMC-7721 cells; type: cell-based
T3 construct: expressed in transfected cells; host or cells: SMMC-7721 or U2OS
T3 sequence (Q03181 1-441): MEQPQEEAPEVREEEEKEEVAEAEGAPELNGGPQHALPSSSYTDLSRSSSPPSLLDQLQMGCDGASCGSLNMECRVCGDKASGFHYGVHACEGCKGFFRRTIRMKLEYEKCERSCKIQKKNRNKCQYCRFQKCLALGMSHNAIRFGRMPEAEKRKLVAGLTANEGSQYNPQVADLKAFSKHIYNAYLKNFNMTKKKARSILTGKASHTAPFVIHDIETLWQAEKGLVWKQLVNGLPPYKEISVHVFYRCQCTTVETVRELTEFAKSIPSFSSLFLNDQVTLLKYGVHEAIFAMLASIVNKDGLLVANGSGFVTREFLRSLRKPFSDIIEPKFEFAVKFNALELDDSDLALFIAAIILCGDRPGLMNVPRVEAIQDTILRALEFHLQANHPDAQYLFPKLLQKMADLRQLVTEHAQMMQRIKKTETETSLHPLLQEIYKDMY
T3 sequence (P19793 1-462 partner): T1 sequence (P19793 1-462 partner)

PPARγ [4] = target: T2, PPARγ; assay: PPARγ transactivation reporter gene assay in SMMC-7721 cells; type: cell-based
PPARδ [5] = target: T3, PPARδ; assay: PPARδ transactivation reporter gene assay in U2OS cells; type: cell-based
PPARα [6] = target: T1, PPARα; assay: PPARα transactivation reporter gene assay in U2OS cells; type: cell-based
RAW267.4 cells = assay: Gene expression by RT-PCR in RAW267.4 cells; type: cell-based, mouse; settings: 48 h, 10 μM chiglitazar; for Expression of PPARα and/or PPARδ downstream gene SRA: 50 μM WY14643, 5 μM 2-Bro, compared with rosiglitazone 10 μM
Source text: as §1, §2, §3

C2C12 cells = assay: Gene expression by RT-PCR in C2C12 cells; type: cell-based, mouse; settings: 48 h, 10 μM chiglitazar, 50 μM WY14643, 5 μM 2-Bro, compared with rosiglitazone 10 μM
Source text: as §1
Total RNA was extracted from cells or tissues with an RNeasy minikit (Qiagen, Valencia, CA, USA). The first-strand cDNA was synthesized using the oligo(dT) primers, followed by using SuperScript II reverse transcriptase (Invitrogen) according to the manufacturer's instructions. […] PCR products were analyzed by electrophoresis on a 1.5% agarose gel stained with ethidium bromide. […]

rats = system: rats; parameters: method as in earlier work; settings: same length of treatment (6 months) ref 44, 45; cited from earlier work
KKAy mice = assay: Gene expression by RT-PCR in tissues of treated KKAy mice; type: in vivo, mouse; settings: 12 days oral
Experimental: as §2
Male db/db mice (BKS.Cg-m +/+ LEPR^db) in 6-7 weeks were purchased from The Jackson Laboratory (Bar Harbor, ME, USA). Male KKAy and C57BL/6J mice in 8–10 weeks were obtained from the Institute of Animal Science, Chinese Academy of Medical Sciences and Peking Union Medical College (Beijing, China). Animals were randomly sorted into different treatment groups (8–10 per group). […]. Plasma glucose levels were examined at various time points by Accu-Chek Advantage II Glucose Strips (Roche Diagnostics, Basel, Switzerland) and measured by Accu-Chek Advantage (Roche Diagnostics). Animals were sacrificed 24 h after the last dosing and abdominal fat pad, liver, and skeletal muscle from KKAy mice and abdominal fat pad from db/db mice were taken for gene expression analysis.
Figure 3 In vivo regulation of gene expression by chiglitazar. […]. Equal amount of total RNA from each mouse in the same group was mixed and subjected to RT-PCR analysis for the indicated genes. […]. Total RNA was isolated from individual animal tissues and subjected to the RT-PCR analysis independently for the indicated genes.

3T3-L1 cells = assay: Gene expression by RT-PCR in 3T3-L1 cells; type: cell-based, mouse; settings: 48 h, 10 μM rosiglitazone, 10 μM chiglitazar, vs vehicle
Source text: as §1, with “The human hepatoma SMMC-7721 cell line was obtained from the Cell Culture Center of Chinese Academy of Medical Sciences (Beijing, China). Cell lines were cultured in medium of DMEM (3T3-L1, C2C12, and SMMC-7721), RPMI 1640 (RAW267.4), or McCoy's 5A (U2OS), containing 10% fetal bovine serum (FBS), 50 μg/mL streptomycin, and 50 units/mL penicillin at 37°C in a humidified incubator with 5% CO2.” left out
Total RNA was extracted from cells or tissues with an RNeasy minikit (Qiagen, Valencia, CA, USA). […] PCR products were analyzed by electrophoresis on a 1.5% agarose gel stained with ethidium bromide. […]

[7] = 24 h treatment, luciferase reporter, hRXR cotransfected, ia: inactive at 10 μM
[8] = chiglitazar 20 mg kg^−1, rosiglitazone 5 mg kg^−1
[9] = max response compared with WY at 50 μM

SMILES: CCCCCCCCCCCCCCC(Br)C(=O)O (centres unmarked) [2-Bro, 2-bromohexadecanoic acid, reference compound]
PPARα EC50 (PPARα [1]; [7]): ia^2
Expression of LDL receptor (LDLR) (SMMC-7721 cells): significantly upregulated
PPARγ EC50 (PPARγ [2]): ia
EC50 (PPARδ [3]): 5.1 ± 0.9 µM
PPARδ % Max (PPARδ [3]; SMMC-7721 cells, max response compared with 2-Bro at 10 μM): 100%
EC50 (PPARγ [4]): 5.5 ± 1.7 µM
PPARγ % Max (PPARγ [4]; SMMC-7721 cells, max response compared with Ros at 1 μM): 14%
EC50 (PPARδ [5]): 9.2 ± 0.8 µM
PPARδ % Max (PPARδ [5]; U2OS cells, max response compared with 2-Bro at 10 μM): 100%
PPARα EC50 (PPARα [6]; [7]): ia
Expression of PPARα and/or PPARδ downstream gene SRA (RAW267.4 cells): more significantly upregulated
Expression of PPARα and/or PPARδ downstream genes CPT-1a and CPT-1b (C2C12 cells): more significantly upregulated

SMILES: CCc1ccc(CCOc2ccc(CC3SC(=O)NC3=O)cc2)nc1 (centres unmarked) [Pio, pioglitazone]
Dose observed to induce heart weight increase (rats): 4 mg/kg

SMILES: CN(CCOc1ccc(CC2SC(=O)NC2=O)cc1)c1ccccn1 (centres unmarked) [Ros, rosiglitazone, reference compound]
Expression of ACADL, HSL, GLUT4 and PPARγ in liver and skeletal muscle (KKAy mice; [8]): not affected
Expression of genes involved in PPARγ-mediated insulin sensitization in adipose tissue (KKAy mice; [8]): almost identically up-regulated
Expression of Adiponectin and CD36 in liver and skeletal muscle (KKAy mice; rosiglitazone 5 mg kg^−1 vs chiglitazar 20 mg kg^−1): more upregulated
Expression of PPARγ downstream genes AOX, LIPC and HSL (SMMC-7721 cells; vs vehicle): upregulated
Expression of LDL receptor (LDLR) (SMMC-7721 cells): downregulated
Dose observed to induce heart weight increase (rats): 5 mg/kg
Expression of PPARγ downstream genes SREBP1 and adiponectin (3T3-L1 cells): upregulated
Expression of PPARγ downstream gene CD36 (RAW267.4 cells; 10 μM rosiglitazone, vs vehicle): upregulated

PPARα % Max (PPARα [1]; [9]): 100%
PPARα % Max (PPARα [6]; [9]): 100%
SMILES: Cc1cccc(Nc2cc(Cl)nc(SCC(=O)O)n2)c1C [WY, WY14643]
Expression of LDL receptor (LDLR) (SMMC-7721 cells): downregulated
Expression of PPARα and/or PPARδ downstream gene SRA (RAW267.4 cells): more significantly upregulated
Expression of PPARα and/or PPARδ downstream genes CPT-1a and CPT-1b (C2C12 cells): more significantly upregulated

Source: publication PMC3486420, “In Vitro and In Vivo Characterizations of Chiglitazar, a Newly Identified PPAR Pan-Agonist” (PPAR Research, 2012)
